Reference: PubChem BioAssay (NCI)
Several values for one entry are separate records, joined by “and”; a condition that tells them apart may be missing. Identical values can stand only once.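 These data come from cells grown in 96-well plates and exposed to compound for 48 hours at five concentrations. GI50 = concentration required for 50% inhibition of growth. The concentration for full growth arrest is given as TGI.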

Experiments:
Test in all cases: DTP human tumour cell line panel, 48 h
NCI-H460 lung = tested on: NCI-H460 lung
SNB-19 CNS = tested on: SNB-19 CNS
MOLT-4 leukemia = tested on: MOLT-4 leukemia
MDA-MB-435 = tested on: MDA-MB-435
OVCAR-5 ovarian = tested on: OVCAR-5 ovarian
HOP-92 NSCLC = tested on: HOP-92 NSCLC
SK-MEL-28 melanoma = tested on: SK-MEL-28 melanoma
HCT-116 colon = tested on: HCT-116 colon
KM12 colon = tested on: KM12 colon
NCI-H23 lung = tested on: NCI-H23 lung

## Cc1ccc(NSc2ccccc2[N+](=O)[O-])cc1
NCI-H460 lung
  GI50: 0.432 µM
  TGI: 11.1 µM
SNB-19 CNS
  GI50: 1.22 µM
  TGI: 19.6 µM
MOLT-4 leukemia
  GI50: 0.208 µM
  TGI: > 62.7 µM
MDA-MB-435
  GI50: 0.0678 µM
  TGI: 0.171 µM
OVCAR-5 ovarian
  GI50: 3.42 µM
  TGI: 20.9 µM
HOP-92 NSCLC
  GI50: 0.502 µM
  TGI: 13.7 µM
SK-MEL-28 melanoma
  GI50: 7.71 µM
  TGI: 26.4 µM
HCT-116 colon
  GI50: 0.48 µM
  TGI: 12.1 µM
KM12 colon
  GI50: 0.141 µM
  TGI: 12.5 µM
NCI-H23 lung
  GI50: 1.58 µM
  TGI: 22.6 µM

## COc1cc(Nc2ncc3c(C)nc(-c4cccc(Oc5ccccc5)c4)n3n2)cc(OC)c1OC
NCI-H460 lung
  GI50: 3.21 µM
  TGI: > 25 µM
SNB-19 CNS
  GI50: 12.1 µM
  TGI: > 25 µM
MOLT-4 leukemia
  GI50: 7.46 µM
  TGI: > 21.3 µM
MDA-MB-435
  GI50: 6.26 µM
  TGI: > 25 µM
OVCAR-5 ovarian
  GI50: 11.6 µM
  TGI: > 25 µM
HOP-92 NSCLC
  GI50: 6.29 µM
  TGI: > 24.1 µM
SK-MEL-28 melanoma
  GI50: 7.63 µM
  TGI: > 25 µM
HCT-116 colon
  GI50: 3.03 µM
  TGI: > 25 µM
KM12 colon
  GI50: 5.95 µM
  TGI: > 25 µM
NCI-H23 lung
  GI50: 6.68 µM
  TGI: > 25 µM

## CO/N=C(\COc1ccc2c(c1)oc(=O)c1cc(OC)ccc12)c1ccc(F)cc1
NCI-H460 lung
  GI50: 23.8 µM
  TGI: > 100 µM
SNB-19 CNS
  GI50: 30.4 µM
  TGI: > 100 µM
MOLT-4 leukemia
  GI50: 36.6 µM
  TGI: > 100 µM
MDA-MB-435
  GI50: 66.1 µM
  TGI: > 100 µM
OVCAR-5 ovarian
  GI50: 29.4 µM
  TGI: 83.4 µM
HOP-92 NSCLC
  GI50: 14.4 µM
  TGI: 37.4 µM
SK-MEL-28 melanoma
  GI50: 87.3 µM
  TGI: > 100 µM
HCT-116 colon
  GI50: 14.9 µM
  TGI: 41.2 µM
KM12 colon
  GI50: 33.7 µM
  TGI: > 100 µM
NCI-H23 lung
  GI50: 37.6 µM
  TGI: > 100 µM

## CC1(C)N=C(N)N=C(N)N1c1ccc(OCC(=O)N2CCOCC2)c(Cl)c1
NCI-H460 lung
  GI50: 0.362 µM
  TGI: > 100 µM
SNB-19 CNS
  GI50: 19.1 µM
  TGI: > 100 µM
MOLT-4 leukemia
  GI50: 6.31 µM
  TGI: > 100 µM
MDA-MB-435
  GI50: 0.565 µM
  TGI: > 100 µM
OVCAR-5 ovarian
  GI50: 84.4 µM
  TGI: > 100 µM
HOP-92 NSCLC
  GI50: > 100 µM
  TGI: > 100 µM
SK-MEL-28 melanoma
  GI50: 30.1 µM
  TGI: > 100 µM
HCT-116 colon
  GI50: 0.667 µM
  TGI: > 100 µM
KM12 colon
  GI50: 4.7 µM
  TGI: > 100 µM
NCI-H23 lung
  GI50: 1.5 µM
  TGI: > 100 µM

## CNc1cccnc1/C=N/NC(N)=S
NCI-H460 lung
  TGI: > 10 µM
SNB-19 CNS
  TGI: > 10 µM
MOLT-4 leukemia
  TGI: > 10 µM
MDA-MB-435
  TGI: > 10 µM
OVCAR-5 ovarian
  TGI: 9.78 µM
HOP-92 NSCLC
  TGI: > 10 µM
SK-MEL-28 melanoma
  TGI: > 10 µM
HCT-116 colon
  TGI: > 8.26 µM
KM12 colon
  TGI: > 10 µM
NCI-H23 lung
  TGI: > 6.65 µM

## COc1cc(C2CC(c3ccc(Nc4ccnc5cc(Cl)ccc45)cc3)=NN2C=O)cc(OC)c1OC (centres undefined)
NCI-H460 lung
  GI50: 4.42 µM
  TGI: > 100 µM
SNB-19 CNS
  GI50: 18.2 µM
  TGI: > 100 µM
MOLT-4 leukemia
  GI50: 3.36 µM
  TGI: 9.21 µM
MDA-MB-435
  GI50: 2.1 µM
  TGI: 5.4 µM
OVCAR-5 ovarian
  GI50: 69.2 µM
  TGI: > 100 µM
HOP-92 NSCLC
  GI50: 1.83 µM
  TGI: 5.59 µM
SK-MEL-28 melanoma
  GI50: 2.22 µM
  TGI: 4.81 µM
HCT-116 colon
  GI50: 3.21 µM
  TGI: 9.61 µM
KM12 colon
  GI50: 5.87 µM
  TGI: > 100 µM
NCI-H23 lung
  GI50: 20.4 µM
  TGI: > 100 µM

## CC(C)=CC(O)C/C(C)=C/CC/C(C)=C/CCC1(C)C(CCCO)/C(=C(/C)C=O)CCC1(C)O (centres undefined)
NCI-H460 lung
  TGI: > 100 µM
SNB-19 CNS
  TGI: > 100 µM
MOLT-4 leukemia
  TGI: 83.2 µM
MDA-MB-435
  TGI: > 100 µM
OVCAR-5 ovarian
  TGI: > 100 µM
HOP-92 NSCLC
  TGI: > 100 µM
SK-MEL-28 melanoma
  TGI: > 100 µM
HCT-116 colon
  TGI: > 100 µM
KM12 colon
  TGI: 52.9 µM
NCI-H23 lung
  TGI: 93 µM

## O=C(Nc1cccnc1)c1cccc([N+](=O)[O-])c1
NCI-H460 lung
  GI50: > 100 µM
  TGI: > 100 µM
SNB-19 CNS
  GI50: > 100 µM
  TGI: > 100 µM
MOLT-4 leukemia
  GI50: > 100 µM
  TGI: > 100 µM
MDA-MB-435
  GI50: > 100 µM
  TGI: > 100 µM
OVCAR-5 ovarian
  GI50: > 100 µM
  TGI: > 100 µM
HOP-92 NSCLC
  GI50: > 100 µM
  TGI: > 100 µM
SK-MEL-28 melanoma
  GI50: > 100 µM
  TGI: > 100 µM
HCT-116 colon
  GI50: > 100 µM
  TGI: > 100 µM
KM12 colon
  GI50: > 100 µM
  TGI: > 100 µM
NCI-H23 lung
  GI50: > 100 µM
  TGI: > 100 µM

## CC1CC(C)/C(=N/NC(N)=O)C(C(O)CC2CCC(=O)NC2=O)C1 (centres undefined)
NCI-H460 lung
  GI50: 4 µM
  TGI: > 100 µM
SNB-19 CNS
  GI50: 3.73 µM
  TGI: > 100 µM
MOLT-4 leukemia
  GI50: 4.09 µM
  TGI: > 100 µM
MDA-MB-435
  GI50: 3.3 µM
  TGI: 97 µM
OVCAR-5 ovarian
  GI50: 3.73 µM
  TGI: 86.2 µM
HOP-92 NSCLC
  GI50: 2.31 µM
  TGI: 31.5 µM
SK-MEL-28 melanoma
  GI50: 3.91 µM
  TGI: > 100 µM
HCT-116 colon
  GI50: 3.04 µM
  TGI: > 100 µM
KM12 colon
  GI50: 3.05 µM
  TGI: 42.4 µM
NCI-H23 lung
  GI50: 3.57 µM
  TGI: > 100 µM

## c1ccc2c(-c3nc4ccccc4[nH]3)cccc2c1
NCI-H460 lung
  GI50: 3.17 µM
  TGI: 15.8 µM
SNB-19 CNS
  GI50: 4.26 µM
  TGI: 40.4 µM
MOLT-4 leukemia
  GI50: 2.9 µM
  TGI: 83.8 µM
MDA-MB-435
  GI50: 0.309 µM
  TGI: 1.44 µM
OVCAR-5 ovarian
  GI50: 8.35 µM
  TGI: > 100 µM
HOP-92 NSCLC
  GI50: 4.27 µM
  TGI: 38.2 µM
SK-MEL-28 melanoma
  GI50: 4.64 µM
  TGI: > 100 µM
HCT-116 colon
  GI50: 3.47 µM
  TGI: 96.8 µM
KM12 colon
  GI50: 2.26 µM
  TGI: > 100 µM
NCI-H23 lung
  GI50: 4.2 µM
  TGI: > 100 µM

## Oc1ccc2ccccc2c1C(c1ccc(Cl)cc1)c1c(O)ccc2ccccc12
NCI-H460 lung
  TGI: 11.3 µM
SNB-19 CNS
  TGI: 19 µM
MOLT-4 leukemia
  TGI: 17.5 µM
MDA-MB-435
  TGI: 9.49 µM
OVCAR-5 ovarian
  TGI: 12 µM
HOP-92 NSCLC
  TGI: 4.89 µM
SK-MEL-28 melanoma
  TGI: 15.9 µM
HCT-116 colon
  TGI: 9.36 µM
KM12 colon
  TGI: 7.87 µM
NCI-H23 lung
  TGI: 19.1 µM

## Cc1ccc(/C=C/C(=O)c2ccc(N)cc2)c(C)c1
NCI-H460 lung
  GI50: 14.7 µM
  TGI: 33.8 µM
SNB-19 CNS
  GI50: 14.4 µM
  TGI: 27.8 µM
MOLT-4 leukemia
  GI50: 1.28 µM
  TGI: 3.69 µM
MDA-MB-435
  GI50: 4.01 µM
  TGI: 15.5 µM
OVCAR-5 ovarian
  GI50: 7.32 µM
  TGI: 27.9 µM
HOP-92 NSCLC
  GI50: 1.96 µM
  TGI: 4.43 µM
SK-MEL-28 melanoma
  GI50: 16.6 µM
  TGI: 30.3 µM
HCT-116 colon
  GI50: 1.91 µM
  TGI: 3.76 µM
KM12 colon
  GI50: 4.38 µM
  TGI: 16.8 µM
NCI-H23 lung
  GI50: 2.19 µM
  TGI: 5.21 µM

## O=c1oc2ccc(F)cc2c(=O)n1-c1ccc(Cl)cc1F
NCI-H460 lung
  GI50: 0.619 µM
  TGI: 12.2 µM
SNB-19 CNS
  GI50: 0.541 µM
  TGI: > 100 µM
MOLT-4 leukemia
  GI50: 2 µM
  TGI: 5.27 µM
MDA-MB-435
  GI50: 0.674 µM
  TGI: 5.48 µM
OVCAR-5 ovarian
  GI50: 3.73 µM
  TGI: > 100 µM
HOP-92 NSCLC
  GI50: 0.205 µM
  TGI: 0.613 µM
SK-MEL-28 melanoma
  GI50: 0.456 µM
  TGI: 2.92 µM
HCT-116 colon
  GI50: 0.563 µM
  TGI: 2.82 µM
KM12 colon
  GI50: 2.11 µM
  TGI: 5.84 µM
NCI-H23 lung
  GI50: 0.604 µM
  TGI: 5.16 µM

## C/C1=C\CC[C@@]2(C)O[C@@H]2C[C@@H]2[C@H](C/C(C)=C/CC1)OC(=O)C21CCN=N1 (some centres undefined)
NCI-H460 lung
  GI50: > 100 µM
  TGI: 75 µM and > 100 µM
SNB-19 CNS
  GI50: > 100 µM
  TGI: > 100 µM
MOLT-4 leukemia
  GI50: > 100 µM
  TGI: 75 µM and > 100 µM
MDA-MB-435
  GI50: > 100 µM
  TGI: > 100 µM
OVCAR-5 ovarian
  GI50: > 100 µM
  TGI: > 100 µM
HOP-92 NSCLC
  TGI: > 75 µM
SK-MEL-28 melanoma
  GI50: > 100 µM
  TGI: > 100 µM
HCT-116 colon
  GI50: > 100 µM
  TGI: > 100 µM
KM12 colon
  GI50: > 100 µM
  TGI: > 100 µM
NCI-H23 lung
  GI50: > 100 µM
  TGI: > 100 µM
